Earlier results, collected in PubChem BioAssay AID1259409 (Chemical Carcinogenesis Research Information System (CCRIS), 2018).

Test system: rodent chemically induced tumor inhibition, incidence and multiplicity
Assay: CCRIS tumor inhibitor studies

N[C@@H](CCC(=O)N[C@@H](CS)C(=O)NCC(=O)O)C(=O)O
tumour outcome (control, treated, inhibition, significance) (Carcinogen: TRANS-5-AMINO-3-[2-(5-NITRO-2-FURYL)VINYL]-1,2,4-OXADIAZOLE;SQL8506, 28754-68-9, Carcinogen: TRANS-5-AMINO-3-[2-(5-NITRO-2-FURYL)VINYL]-1,2,4-OXADIAZOLE;SQL8506, 28754-68-9, Dose [Inhibitor]: 400 MG/KG 16 HR BEFORE THE 1ST CARCINOGEN DOSE FOLLOWED BY ADDITIONAL INJECTIONS IMMEDIATELY BEFORE EACH DOSE OF CARCINO, Route [Inhibitor]: INTRAPERITONEAL, Species: MOUSE, Strain/Sex: CD-1/FEMALE, Target Tissue: Type of Lesion: HEMATOPOIETIC SYSTEM: MYELOID LEUKEMIA, Dose [Carcinogen]: 1 G/KG 2/D FOR 5 D EVERY 4 WK FOR 3 COURSES OF TREATMENT, Promoter: NONE USED): 7/137 (5%), 2/35 (6%), -20%, not calculated
tumour outcome (control, treated, inhibition, significance) (Carcinogen: TRANS-5-AMINO-3-[2-(5-NITRO-2-FURYL)VINYL]-1,2,4-OXADIAZOLE;SQL8506, 28754-68-9, Carcinogen: TRANS-5-AMINO-3-[2-(5-NITRO-2-FURYL)VINYL]-1,2,4-OXADIAZOLE;SQL8506, 28754-68-9, Dose [Inhibitor]: 400 MG/KG 16 HR BEFORE THE 1ST CARCINOGEN DOSE FOLLOWED BY ADDITIONAL INJECTIONS IMMEDIATELY BEFORE EACH DOSE OF CARCINO, Route [Inhibitor]: INTRAPERITONEAL, Species: MOUSE, Strain/Sex: CD-1/FEMALE, Target Tissue: Type of Lesion: LYMPHOID TISSUE: NONTHYMIC LYMPHOMA, Dose [Carcinogen]: 1 G/KG 2/D FOR 5 D EVERY 4 WK FOR 3 COURSES OF TREATMENT, Promoter: NONE USED): 8/137 (6%), 3/35 (8%), -33%, not calculated
tumour outcome (control, treated, inhibition, significance) (Carcinogen: TRANS-5-AMINO-3-[2-(5-NITRO-2-FURYL)VINYL]-1,2,4-OXADIAZOLE;SQL8506, 28754-68-9, Carcinogen: TRANS-5-AMINO-3-[2-(5-NITRO-2-FURYL)VINYL]-1,2,4-OXADIAZOLE;SQL8506, 28754-68-9, Dose [Inhibitor]: 400 MG/KG 16 HR BEFORE THE 1ST CARCINOGEN DOSE FOLLOWED BY ADDITIONAL INJECTIONS IMMEDIATELY BEFORE EACH DOSE OF CARCINO, Route [Inhibitor]: INTRAPERITONEAL, Species: MOUSE, Strain/Sex: CD-1/FEMALE, Target Tissue: Type of Lesion: LYMPHOID TISSUE: THYMIC LYMPHOMA, Dose [Carcinogen]: 1 G/KG 2/D FOR 5 D EVERY 4 WK FOR 3 COURSES OF TREATMENT, Promoter: NONE USED): 22/137 (16%), 2/35 (6%), 62%, not calculated
tumour outcome (control, treated, inhibition, significance) (Carcinogen: TRANS-5-AMINO-3-[2-(5-NITRO-2-FURYL)VINYL]-1,2,4-OXADIAZOLE;SQL8506, 28754-68-9, Carcinogen: TRANS-5-AMINO-3-[2-(5-NITRO-2-FURYL)VINYL]-1,2,4-OXADIAZOLE;SQL8506, 28754-68-9, Dose [Inhibitor]: 400 MG/KG 16 HR BEFORE THE 1ST CARCINOGEN DOSE FOLLOWED BY ADDITIONAL INJECTIONS IMMEDIATELY BEFORE EACH DOSE OF CARCINO, Route [Inhibitor]: INTRAPERITONEAL, Species: MOUSE, Strain/Sex: CD-1/FEMALE, Target Tissue: Type of Lesion: STOMACH: SQUAMOUS CARCINOMA, Dose [Carcinogen]: 1 G/KG 2/D FOR 5 D EVERY 4 WK FOR 3 COURSES OF TREATMENT, Promoter: NONE USED): 60/137 (44%), 12/35 (34%), 23%, not calculated

S=C=NCCCCCCCCc1ccccc1
tumour outcome (control, treated, inhibition, significance) (Carcinogen: 4-(METHYLNITROSAMINO)-1-(3-PYRIDYL)-1-BUTANONE, 64091-91-4, Dose [Inhibitor]: 0, 0.04 UMOL ONCE 2 HR PRIOR TO CARCINOGEN DOSE (STUDY DURATION: 16 WK), Route [Inhibitor]: GAVAGE, Species: MOUSE, Strain/Sex: STRAIN-A/FEMALE, Target Tissue: Type of Lesion: LUNG: ADENOMA, Dose [Carcinogen]: 10 UMOL IN 0.1 ML SALINE ONCE, Promoter: NONE USED): 100%, 100%, 0%, not significant
tumour outcome (control, treated, inhibition, significance) (Carcinogen: 4-(METHYLNITROSAMINO)-1-(3-PYRIDYL)-1-BUTANONE, 64091-91-4, Dose [Inhibitor]: 0, 0.1 UMOL ONCE 2 HR PRIOR TO CARCINOGEN DOSE (STUDY DURATION: 16 WK), Route [Inhibitor]: GAVAGE, Species: MOUSE, Strain/Sex: STRAIN-A/FEMALE, Target Tissue: Type of Lesion: LUNG: ADENOMA, Dose [Carcinogen]: 10 UMOL IN 0.1 ML SALINE ONCE, Promoter: NONE USED): 100%, 100%, 0%, not significant
tumour outcome (control, treated, inhibition, significance) (Carcinogen: 4-(METHYLNITROSAMINO)-1-(3-PYRIDYL)-1-BUTANONE, 64091-91-4, Dose [Inhibitor]: 0, 0.2 UMOL ONCE 2 HR PRIOR TO CARCINOGEN DOSE (STUDY DURATION: 16 WK), Route [Inhibitor]: GAVAGE, Species: MOUSE, Strain/Sex: STRAIN-A/FEMALE, Target Tissue: Type of Lesion: LUNG: ADENOMA, Dose [Carcinogen]: 10 UMOL IN 0.1 ML SALINE ONCE, Promoter: NONE USED): 100%, 90%, 10%, p<0.05

COc1c2ccoc2c(OC)c2oc(=O)ccc12
tumour outcome (control, treated, inhibition, significance) (Carcinogen: 7,12-DIMETHYLBENZ[A]ANTHRACENE, 57-97-6, Dose [Inhibitor]: 0, 30 MG/KG BW TWICE AT 24 HR AND 2 HR PRIOR TO CARCINOGEN DOSE (STUDY DURATION: 18 WK), Route [Inhibitor]: GAVAGE, Species: MOUSE, Strain/Sex: SENCAR/FEMALE, Target Tissue: Type of Lesion: INTEGUMENTARY SYSTEM: SKIN PAPILLOMA, Dose [Carcinogen]: 10 NMOL IN 0.2 ML ACETONE ONCE, Promoter: 12-O-TETRADECANOYLPHORBOL-13-ACETATE, 16561-29-8): 30/30 (100%), 29/30 (97%), 3%, not significant
tumour outcome (control, treated, inhibition, significance) (Carcinogen: 7,12-DIMETHYLBENZ[A]ANTHRACENE, 57-97-6, Dose [Inhibitor]: 0, 70 MG/KG BW TWICE AT 24 HR AND 2 HR PRIOR TO CARCINOGEN DOSE (STUDY DURATION: 18 WK), Route [Inhibitor]: GAVAGE, Species: MOUSE, Strain/Sex: SENCAR/FEMALE, Target Tissue: Type of Lesion: INTEGUMENTARY SYSTEM: SKIN PAPILLOMA, Dose [Carcinogen]: 10 NMOL IN 0.2 ML ACETONE ONCE, Promoter: 12-O-TETRADECANOYLPHORBOL-13-ACETATE, 16561-29-8): 30/30 (100%), 26/30 (86%), 14%, not significant
tumour outcome (control, treated, inhibition, significance) (Carcinogen: 7,12-DIMETHYLBENZ[A]ANTHRACENE, 57-97-6, Dose [Inhibitor]: 0, 150 MG/KG BW TWICE AT 24 HR AND 2 HR PRIOR TO CARCINOGEN DOSE (STUDY DURATION: 18 WK), Route [Inhibitor]: GAVAGE, Species: MOUSE, Strain/Sex: SENCAR/FEMALE, Target Tissue: Type of Lesion: INTEGUMENTARY SYSTEM: SKIN PAPILLOMA, Dose [Carcinogen]: 10 NMOL IN 0.2 ML ACETONE ONCE, Promoter: 12-O-TETRADECANOYLPHORBOL-13-ACETATE, 16561-29-8): 30/30 (100%), 23/30 (78%), 22%, p< 0.006
tumour outcome (control, treated, inhibition, significance) (Carcinogen: 7,12-DIMETHYLBENZ[A]ANTHRACENE, 57-97-6, Dose [Inhibitor]: 0, 400 NMOL IN 0.2 ML ACETONE ONCE 5 MIN PRIOR TO CARCINOGEN DOSE (STUDY DURATION: 18 WK), Route [Inhibitor]: DERMAL, Species: MOUSE, Strain/Sex: SENCAR/FEMALE, Target Tissue: Type of Lesion: INTEGUMENTARY SYSTEM: SKIN PAPILLOMA, Dose [Carcinogen]: 10 NMOL IN 0.2 ML ACETONE ONCE, Promoter: 12-O-TETRADECANOYLPHORBOL-13-ACETATE, 16561-29-8): 30/30 (100%), 28/30 (93%), 7%, not significant
tumour outcome (control, treated, inhibition, significance) (Carcinogen: 7,12-DIMETHYLBENZ[A]ANTHRACENE, 57-97-6, Dose [Inhibitor]: 0, 800 NMOL IN 0.2 ML ACETONE ONCE 5 MIN PRIOR TO CARCINOGEN DOSE (STUDY DURATION: 18 WK), Route [Inhibitor]: DERMAL, Species: MOUSE, Strain/Sex: SENCAR/FEMALE, Target Tissue: Type of Lesion: INTEGUMENTARY SYSTEM: SKIN PAPILLOMA, Dose [Carcinogen]: 10 NMOL IN 0.2 ML ACETONE ONCE, Promoter: 12-O-TETRADECANOYLPHORBOL-13-ACETATE, 16561-29-8): 30/30 (100%), 27/30 (90%), 10%, not significant
tumour outcome (control, treated, inhibition, significance) (Carcinogen: 7,12-DIMETHYLBENZ[A]ANTHRACENE, 57-97-6, Dose [Inhibitor]: 0, 1600 NMOL IN 0.2 ML ACETONE ONCE 5 MIN PRIOR TO CARCINOGEN DOSE (STUDY DURATION: 18 WK), Route [Inhibitor]: DERMAL, Species: MOUSE, Strain/Sex: SENCAR/FEMALE, Target Tissue: Type of Lesion: INTEGUMENTARY SYSTEM: SKIN PAPILLOMA, Dose [Carcinogen]: 10 NMOL IN 0.2 ML ACETONE ONCE, Promoter: 12-O-TETRADECANOYLPHORBOL-13-ACETATE, 16561-29-8): 30/30 (100%), 23/30 (77%), 23%, p< 0.002
tumour outcome (control, treated, inhibition, significance) (Carcinogen: 7,12-DIMETHYLBENZ[A]ANTHRACENE, 57-97-6, Dose [Inhibitor]: 0, 3200 NMOL IN 0.2 ML ACETONE ONCE 5 MIN PRIOR TO CARCINOGEN DOSE (STUDY DURATION: 18 WK), Route [Inhibitor]: DERMAL, Species: MOUSE, Strain/Sex: SENCAR/FEMALE, Target Tissue: Type of Lesion: INTEGUMENTARY SYSTEM: SKIN PAPILLOMA, Dose [Carcinogen]: 10 NMOL IN 0.2 ML ACETONE ONCE, Promoter: 12-O-TETRADECANOYLPHORBOL-13-ACETATE, 16561-29-8): 30/30 (100%), 27/30 (89%), 11%, not significant

c1ccc2c(c1)Oc1ccccc1O2
tumour outcome (control, treated, inhibition, significance) (Carcinogen: 7,12-DIMETHYLBENZ[A]ANTHRACENE, 57-97-6, Dose [Inhibitor]: 0, 17 NMOL 2/WK APPLIED 1 HR PRIOR TO EACH PROMOTER DOSE FOR 20 WK (STUDY DURATION: 21 WK), Route [Inhibitor]: DERMAL, Species: MOUSE, Target Tissue: Type of Lesion: SKIN: TUMOR, Dose [Carcinogen]: 390 NMOL ONCE, Promoter: 12-O-TETRADECANOYLPHORBOL-13-ACETATE, 16561-29-8): 100%, 73%, 27%, not calculated

CCS(=O)(=O)c1ccc(/C=C(\C)c2ccc3c(c2)C(C)(C)CCC3(C)C)cc1
tumour outcome (control, treated, inhibition, significance) (Carcinogen: 7,12-DIMETHYLBENZ[A]ANTHRACENE, 57-97-6, Dose [Inhibitor]: 0, 3 MG/KG/D IN FEED REDUCED AFTER 4 WK TO 2.2 MG/KG/D (STUDY DURATION: 13 WK), Route [Inhibitor]: ORAL, Species: RAT, Strain/Sex: SPRAGUE-DAWLEY/FEMALE, Target Tissue: Type of Lesion: MAMMARY GLAND: TUMOR, Dose [Carcinogen]: 15 MG IN ARACHIS OIL ONCE AT 50 D OF AGE, Promoter: NONE USED): 96%, 73%, 24%, not calculated
